Experimental data from article PMC8838521, “Antimicrobial, Cytotoxic and Mutagenic Activity of Gemini QAS Derivatives of 1,4:3,6-Dianhydro-L-iditol” (Molecules, 2022).
“And” between values parts separate entries of the source, which are not always exact repeats. Equal values may be shown once. Read-outs that look alike come from different tables or passages of the source.

Tests used:
Type in all cases: cell-based
[1] = tested on: Staphylococcus aureus ATCC 25923; test: Antimicrobial activity, microdilution MIC, S. aureus reference strain; conditions: Staphylococcus aureus, ATCC25923, 24 h, MIC90, 24 h, MHB2; read-out: MIC S. aureus ATCC 25923
Method: (§1) The antimicrobial potential of the tested agents was evaluated against two reference strains of bacteria: Staphylococcus aureus ATCC 25923 and Escherichia coli K12, two reference strains of pathogenic yeasts, Candida albicans ATCC10231 and Candida glabrata DSMZ11226, as well as 20 strains of clinical isolates of S. aureus collected from patients with skin and soft tissue infections (n = 8) and strains derived from subclinical bovine mastitis milk samples (n = 12). Four of these strains, two isolated from human infections and two isolated from bovine mastitis, were classified as MRSA (Methicillin-resistant Staphylococcus aureus). All of them were mecA positive and their methicillin resistance was confirmed with the disc diffusion assay. The remaining 16 strains were MSSA (Methicillin-sensitive Staphylococcus aureus). The assays were performed using a serial, two-fold dilution method in 96-well microtiter plates under conditions recommended by the Clinical and Laboratory Standards Institute (CLSI, Pittsburgh, PA, USA). The aim of this procedure was the determination of the MIC parameter (Minimum Inhibitory Concentration)—the minimum concentration of a tested agent capable to inhibit the growth of a specified strain of microorganism. The agents were solubilized in deionized, sterile water to a final concentration of […]. Subsequently, solutions were mixed (1:1 (v/v)) with 2 × concentrated liquid medium, Mueller-Hinton Broth 2—cation adjusted (MHB2) for evaluation of antibacterial activity and RPMI in the case of evaluation of the antifungal activity. […] Subsequently, the solutions were mixed with MHB2 or RPMI medium to get the final concentration of 8.192 mg/mL (8192 µg/mL). In the next step, the serial, two-fold dilutions of the tested agents (over the range of concentrations from 8192 to 8 µg/mL for reference strains of bacteria and yeasts and from 512 to 1.0 µg/mL for clinical isolates of S. aureus) were prepared in 96-well microtitration plates in the final volume of 100 μL of the appropriate medium.
(§2) The pure bacterial cultures of (both the reference and clinical strains) were grown on the Mueller-Hinton Agar (MHA) for 18–24 h at 37 °C. A small amount of the biomass of the culture of each strain of microorganisms was suspended in the sterile PBS (phosphate buffered saline, pH 7.4 at 25 °C, purchased from Sigma) solution to get an optical density OD600 = 0.13 (equal to the cells concentration approximately 1 × 10^8 CFU/mL). The obtained suspensions of the cells were next diluted 1:100 (v/v) in the MHB2 medium. One hundred µL of the cells’ suspension was finally loaded into the wells of plates prepared in advance, which contained 100 µL of two-fold dilutions of the tested agents (the final concentration of the bacterial cells in all wells was approximately 5 × 10^5 CFU/mL).
(§3) The pure cultures of yeast strains were grown on the Sabouraud Dextrose Agar (SDA) for 18–24 h at 37 °C. Suspensions of the microorganisms were prepared by taking one loop of pure culture into sterile water and adjusting optical density to 0.1 at 660 nm and further 50-fold dilution in RPMI 1640 medium resulting in cells concentration of approximate 2 × 10^4 CFU/mL. One hundred μL of that suspension was inoculated to the wells of the microtitration plate containing appropriate dilutions of the agents. The positive growth control of each strain (both bacteria and yeasts) was performed in the wells without the tested substances. The negative control containing only the media was included in each assay. Microtiter plates were incubated at 37 °C for 24 h. Following the incubation period, determination of the MIC values of the tested agents was carried out by measuring the absorbance at 531 nm using a Victor^3 microplate reader (Perkin Elmer, Inc., Waltham, MA, USA). The lowest concentration of the agent causing inhibition of growth equal to or higher than 90% (MIC90) of growth control was taken as the MIC value. Each test was repeated three times. […]

[2] = tested on: S. aureus clinical isolates; test: Antistaphylococcal activity, microdilution MIC, clinical isolates; conditions: Staphylococcus aureus
Method: as §1, §2, §3

[3] = tested on: Candida glabrata DSMZ 11226; test: Antimicrobial activity, microdilution MIC, C. glabrata; conditions: Nakaseomyces glabratus, DSMZ11226, 24 h, MIC90, 24 h, RPMI; read-out: MIC C. glabrata DSMZ 11226
Method: as §1
The pure cultures of yeast strains were grown on the Sabouraud Dextrose Agar (SDA) for 18–24 h at 37 °C. Suspensions of the microorganisms were prepared by taking one loop of pure culture into sterile water and adjusting optical density to 0.1 at 660 nm and further 50-fold dilution in RPMI 1640 medium resulting in cells concentration of approximate 2 × 10^4 CFU/mL. One hundred μL of that suspension was inoculated to the wells of the microtitration plate containing appropriate dilutions of the agents. The positive growth control of each strain (both bacteria and yeasts) was performed in the wells without the tested substances. The negative control containing only the media was included in each assay. Microtiter plates were incubated at 37 °C for 24 h. Following the incubation period, determination of the MIC values of the tested agents was carried out by measuring the absorbance at 531 nm using a Victor^3 microplate reader (Perkin Elmer, Inc., Waltham, MA, USA). The lowest concentration of the agent causing inhibition of growth equal to or higher than 90% (MIC90) of growth control was taken as the MIC value. Each test was repeated three times.

[4] = 20 clinical isolates, typical value, read-out: MIC against S. aureus clinical isolates, in general
[5] = isolate 1, human infection, MSSA, read-out: MIC S. aureus isolate 1
[6] = isolate 2, human infection, MSSA, read-out: MIC S. aureus isolate 2
[7] = isolate 3, human infection, MSSA, read-out: MIC S. aureus isolate 3
[8] = isolate 4, human infection, MSSA, read-out: MIC S. aureus isolate 4
[9] = isolate 5, human infection, MSSA, read-out: MIC S. aureus isolate 5
[10] = isolate 6, human infection, MSSA, read-out: MIC S. aureus isolate 6
[11] = isolate 7, human infection, MRSA, read-out: MIC S. aureus isolate 7
[12] = isolate 8, human infection, MRSA, read-out: MIC S. aureus isolate 8
[13] = isolate 9, bovine mastitis, MSSA, read-out: MIC S. aureus isolate 9
[14] = isolate 10, bovine mastitis, MSSA, read-out: MIC S. aureus isolate 10
[15] = isolate 11, bovine mastitis, MSSA, read-out: MIC S. aureus isolate 11
[16] = isolate 12, bovine mastitis, MSSA, read-out: MIC S. aureus isolate 12
[17] = isolate 13, bovine mastitis, MSSA, read-out: MIC S. aureus isolate 13
[18] = isolate 14, bovine mastitis, MSSA, read-out: MIC S. aureus isolate 14
[19] = isolate 15, bovine mastitis, MSSA, read-out: MIC S. aureus isolate 15
[20] = isolate 16, bovine mastitis, MSSA, read-out: MIC S. aureus isolate 16
[21] = isolate 17, bovine mastitis, MSSA, read-out: MIC S. aureus isolate 17
[22] = isolate 18, bovine mastitis, MSSA, read-out: MIC S. aureus isolate 18
[23] = isolate 19, bovine mastitis, MRSA, read-out: MIC S. aureus isolate 19
[24] = isolate 20, bovine mastitis, MRSA, read-out: MIC S. aureus isolate 20

SMILES	MIC [1]	MIC [2, 4]	MIC [2, 5]	MIC [2, 6]	MIC [2, 7]	MIC [2, 8]	MIC [2, 9]	MIC [2, 10]	MIC [2, 11]	MIC [2, 12]	MIC [2, 13]	MIC [2, 14]	MIC [2, 15]	MIC [2, 16]	MIC [2, 17]	MIC [2, 18]	MIC [2, 19]	MIC [2, 20]	MIC [2, 21]	MIC [2, 22]	also measured
CCCCCCCC[N+](C)(C)C1COC2C1OCC2[N+](C)(C)CCCCCCCC (centres unmarked) [QAS 9]	128 µg/mL and 176 µM	64 µg/mL	64 µg/mL and 88 µM	64 µg/mL and 88 µM	64 µg/mL and 88 µM	128 µg/mL and 176 µM	64 µg/mL and 88 µM	64 µg/mL and 88 µM	64 µg/mL and 88 µM	64 µg/mL and 88 µM	64 µg/mL and 88 µM	64 µg/mL and 88 µM	64 µg/mL and 88 µM	64 µg/mL and 88 µM	64 µg/mL and 88 µM	64 µg/mL and 88 µM	64 µg/mL and 88 µM	64 µg/mL and 88 µM	64 µg/mL and 88 µM	64 µg/mL and 88 µM	MIC [2, 23]: 64 µg/mL and 88 µM; MIC [2, 24]: 64 µg/mL and 88 µM; MIC [3]: 1020 µg/mL and 1410 µM
CCCCCCCCCC[N+](C)(C)C1COC2C1OCC2[N+](C)(C)CCCCCCCCCC [QAS 10, N,N’-(1,4:3,6-Dianhydro-2,5-dideoxy-L-iditol-2,5-diyl)-bis(N,N-dimethyl-N-decylammonium) Ditrifluoromethanesulfonate]	8 µg/mL and 10 µM	8 µg/mL	8 µg/mL and 10 µM	8 µg/mL and 10 µM	4 µg/mL and 5 µM	8 µg/mL and 10 µM	8 µg/mL and 10 µM	8 µg/mL and 10 µM	4 µg/mL and 5 µM	8 µg/mL and 10 µM	8 µg/mL and 10 µM	8 µg/mL and 10 µM	8 µg/mL and 10 µM	8 µg/mL and 10 µM	8 µg/mL and 10 µM	4 µg/mL and 5 µM	8 µg/mL and 10 µM	8 µg/mL and 10 µM	8 µg/mL and 10 µM	8 µg/mL and 10 µM	MIC [2, 23]: 8 µg/mL and 10 µM; MIC [2, 24]: 8 µg/mL and 10 µM; MIC ([2]; more susceptible strains among 20 isolates, read-out: MIC of more susceptible S. aureus clinical strains): 4 µg/mL; MIC [3]: 16 µg/mL and 20 µM
